Data published in patent US20170121315A1, “HETEROBICYCLICALLY SUBSTITUTED 4-OXOBUTANE ACID DERIVATIVES AND USE THEREOF” (priority 2014, published 2017).

How the values were obtained:
Assay type in all cases: biochemical
[1] = biological target: T1, human macrophage elastase (HME/hMMP-12) (Homo sapiens, UniProt P39900); assay: In vitro HME inhibition test (standard or high-sensitivity); conditions: in some cases mean values, rounded to two significant figures
T1 construct: purchased R&D Systems 917-MP
T1 sequence (P39900 106-470): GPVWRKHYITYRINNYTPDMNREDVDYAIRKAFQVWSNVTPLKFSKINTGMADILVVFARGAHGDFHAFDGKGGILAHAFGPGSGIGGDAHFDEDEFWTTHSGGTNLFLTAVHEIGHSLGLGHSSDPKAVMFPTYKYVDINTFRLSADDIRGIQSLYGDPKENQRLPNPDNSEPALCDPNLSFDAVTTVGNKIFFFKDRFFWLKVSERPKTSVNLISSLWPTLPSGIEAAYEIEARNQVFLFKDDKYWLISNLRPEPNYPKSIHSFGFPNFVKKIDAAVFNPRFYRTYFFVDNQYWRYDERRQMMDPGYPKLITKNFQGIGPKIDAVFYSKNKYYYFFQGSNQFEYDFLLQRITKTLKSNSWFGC
Procedure, shortened: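 Autoactivated HME (0.5 nM; high-sensitivity format 0.05 nM, ~16 h) with 5 μM quenched Mca-PLGLEEA-Dap(Dnp)-NH2 substrate in HEPES pH 7.4, NaCl, CaCl2, ZnCl2, EDTA, Brij buffer, 2 h at 37° C. Fluorescence at ex 323/em 393 nm; IC50 from signal versus concentration.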

MMP-2 = biological target: T2, MMP-2 (Homo sapiens, UniProt P08253); assay: In vitro MMP-2 inhibition test; conditions: human MMP-2
T2 construct: purchased R&D Systems 902-MP
T2 sequence (P08253 110-660): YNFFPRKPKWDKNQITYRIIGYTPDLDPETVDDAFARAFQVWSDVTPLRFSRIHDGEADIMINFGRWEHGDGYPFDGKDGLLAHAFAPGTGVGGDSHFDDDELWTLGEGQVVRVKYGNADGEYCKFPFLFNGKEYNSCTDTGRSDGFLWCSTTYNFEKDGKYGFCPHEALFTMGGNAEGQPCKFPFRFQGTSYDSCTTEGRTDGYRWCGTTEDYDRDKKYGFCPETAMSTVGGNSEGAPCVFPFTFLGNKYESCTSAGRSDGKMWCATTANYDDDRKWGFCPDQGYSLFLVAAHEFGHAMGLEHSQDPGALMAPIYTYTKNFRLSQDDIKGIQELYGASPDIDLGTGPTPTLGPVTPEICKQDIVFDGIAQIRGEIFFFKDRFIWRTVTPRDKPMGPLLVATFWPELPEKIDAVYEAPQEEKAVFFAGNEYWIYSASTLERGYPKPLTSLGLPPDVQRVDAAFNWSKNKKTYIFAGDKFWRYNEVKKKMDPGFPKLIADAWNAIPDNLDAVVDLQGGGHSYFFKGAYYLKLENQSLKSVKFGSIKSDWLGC
From the text: (§1) The MMP-mediated amidolytic cleavage of a suitable peptide substrate leads to an increase in fluorescent light here too. The signal intensity of the fluorescent light is directly proportional to the enzyme activity. The active concentration of a test compound at which half the enzyme is inhibited (50% signal intensity of the fluorescent light) is reported as the IC50 value.
(§2) Recombinant MMP-2 (R&D Systems, 902-MP) is chemically activated in accordance with the manufacturer's instructions using APMA. 1 μl of the test compound to be analysed (as a solution in DMSO, suitable concentrations e.g. 1 nM to 30 μM) is pipetted into 24 μl of activated enzyme (final concentration e.g. 2 nM) in reaction buffer (50 mM Tris/HCl pH 7.5, 10 mM CaCl2, 150 mM NaCl, 0.05% Brij®-35) in a white 384-hole microtiter plate (MTP). The enzymatic reaction is started by adding the intramolecularly quenched Mca-Pro-Leu-Gly-Leu-Dpa(Dnp)-Ala-Arg-NH2 substrate (final concentration e.g. 10 μM; R&D Systems, ES-001), so as to result in a total test volume of 50 μl. The course of the MMP-2 reaction is measured by measuring the fluorescence intensity (excitation 320 nm, emission 410 nm) over a suitable period of time (e.g. over 120 min at a temperature of 32° C.).

MMP-10 = biological target: T3, MMP-10 (Homo sapiens, UniProt P09238); assay: In vitro MMP-10 inhibition test; conditions: human MMP-10
T3 construct: purchased R&D Systems 910-MP
T3 sequence (P09238 99-476): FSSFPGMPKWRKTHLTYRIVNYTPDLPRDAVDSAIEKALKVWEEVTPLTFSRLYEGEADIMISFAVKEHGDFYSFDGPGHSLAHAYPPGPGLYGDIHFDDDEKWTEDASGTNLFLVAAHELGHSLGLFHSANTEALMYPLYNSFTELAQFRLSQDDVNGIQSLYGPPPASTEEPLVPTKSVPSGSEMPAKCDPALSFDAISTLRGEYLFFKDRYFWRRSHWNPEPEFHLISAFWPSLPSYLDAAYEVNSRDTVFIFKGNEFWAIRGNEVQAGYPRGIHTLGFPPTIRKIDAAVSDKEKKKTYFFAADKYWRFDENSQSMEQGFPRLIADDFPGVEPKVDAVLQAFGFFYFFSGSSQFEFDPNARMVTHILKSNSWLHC
From the text: as §1
as §2, with “MMP-10” for “MMP-2”, “910-MP)” for “902-MP)”, “Mca-Arg-Pro-Lys-Pro-Val-Glu-Nval-Trp-Arg-Lys(Dnp)-NH2” for “Mca-Pro-Leu-Gly-Leu-Dpa(Dnp)-Ala-Arg-NH2”, “ES-002),” for “ES-001),”

MMP-14 = biological target: T4, MMP-14 (Homo sapiens, UniProt P50281); assay: In vitro MMP-14 inhibition test; conditions: human MMP-14
T4 construct: purchased R&D Systems 918-MP
From the text: as §1
Recombinant MMP-14 (R&D Systems, 918-MP) is enzymatically activated in accordance with the manufacturer's instructions using recombinant furin (R&D Systems, 1503-SE). 1 μl of the test compound to be analysed (as a solution in DMSO, suitable concentrations e.g. 1 nM to 30 μM) is pipetted into 24 μl of activated enzyme (final concentration e.g. 0.5 nM) in reaction buffer (50 mM Tris/HCl pH 7.5, 10 mM CaCl2, 150 mM NaCl, 0.05% Brij®-35) in a white 384-hole microtiter plate (MTP). The enzymatic reaction is started by adding the intramolecularly quenched Mca-Lys-Pro-Leu-Gly-Leu-Dpa(Dnp)-Ala-Arg-NH2 substrate (final concentration e.g. 5 μM; R&D Systems, ES-010), so as to result in a total test volume of 50 μl. The course of the MMP-14 reaction is measured by measuring the fluorescence intensity (excitation 320 nm, emission 410 nm) over a suitable period of time (e.g. over 120 min at a temperature of 32° C.).

Row | Structure (SMILES) | IC50 [1] [nM] | IC50 (MMP-2) [nM] | IC50 (MMP-10) [nM] | IC50 (MMP-14) [nM]
1 | Cc1cccc(COc2ccc3oc(C(=O)CC(CCn4nnc5ccccc5c4=O)C(=O)O)cc3c2)c1 (racemic) [Example 51, (+/−)-4-{5-[(3-Methylbenzyl)oxy]-1-benzofur-2-yl}-4-oxo-2-[2-(4-oxo-1,2,3-benzotriazin-3(4H)-yl)ethyl]butanoic acid] | 4.1 | 19000 | 36000 | > 40000
2 | CCCOc1ccc2cc(C(=O)CC(CCn3nnc4ccccc4c3=O)C(=O)O)oc2c1 (racemic) [Example 58, (+/−)-4-Oxo-2-[2-(4-oxo-1,2,3-benzotriazin-3(4H)-yl)ethyl]-4-(6-propoxy-1-benzofur-2-yl)butanoic acid] | 5 | 10000 | > 40000 | 2200
3 | O=C(CC(CCn1nnc2ccccc2c1=O)C(=O)O)c1cc2ccc(OCCCC3CCCCC3)cc2o1 (racemic) [Example 71, (+/−)-4-[6-(3-Cyclohexylpropoxy)-1-benzofur-2-yl]-4-oxo-2-[2-(4-oxo-1,2,3-benzotriazin-3(4H)-yl)ethyl]butanoic acid] | 2.2 | > 40000 | > 40000 | > 40000
4 | O=C(CC(CCn1nnc2ccccc2c1=O)C(=O)O)c1cc2ccc(OCCc3ccccc3)cc2o1 (racemic) [Example 73, (+/−)-4-Oxo-2-[2-(4-oxo-1,2,3-benzotriazin-3(4H)-yl)ethyl]-4-[6-(2-phenylethoxy)-1-benzofur-2-yl]butanoic acid] | 2.8 | 1300 | > 40000 | > 40000
5 | CCCCCCCOc1ccc2c(C(=O)CC(CCn3nnc4ccccc4c3=O)C(=O)O)coc2c1 (racemic) [Example 101, (+/−)-4-[6-(Heptyloxy)-1-benzofur-3-yl]-4-oxo-2-[2-(4-oxo-1,2,3-benzotriazin-3(4H)-yl)ethyl]butanoic acid] | 0.53 | 660 | > 40000 | > 40000
6 | O=C(CC(CCn1nnc2ccccc2c1=O)C(=O)O)c1cc2ccc(OCC3CC3)cc2s1 (racemic) [Example 111, (+/−)-4-[6-(Cyclopropylmethoxy)-1-benzothiophen-2-yl]-4-oxo-2-[2-(4-oxo-1,2,3-benzotriazin-3(4H)-yl)ethyl]butanoic acid] | 3.3 | 350 | 4700 | 6000

Now those with a lower IC50 [1], led by results:

Row | IC50 [1] [nM] | IC50 (MMP-2) [nM] | IC50 (MMP-10) [nM] | IC50 (MMP-14) [nM] | Structure (SMILES)
7 | 0.18 | 20 | 2100 | 1400 | O=C(CC(CCn1nnc2ccccc2c1=O)C(=O)O)c1coc2cc(OCCC3CCOCC3)ccc12 (racemic) [Example 74, (+/−)-4-Oxo-2-[2-(4-oxo-1,2,3-benzotriazin-3(4H)-yl)ethyl]-4-{6-[2-(tetrahydro-2H-pyran-4-yl)ethoxy]-1-benzofur-3-yl}butanoic acid]
8 | 0.22 | 390 | 7700 | 6500 | O=C(CC(CCn1nnc2ccccc2c1=O)C(=O)O)c1coc2cc(OCCC3CCCC3)ccc12 (racemic) [Example 75, (+/−)-4-[6-(2-Cyclopentylethoxy)-1-benzofur-3-yl]-4-oxo-2-[2-(4-oxo-1,2,3-benzotriazin-3(4H)-yl)ethyl]butanoic acid]
9 | 0.35 | 290 | 22000 | 13000 | CCCCCOc1ccc2c(C(=O)CC(CCn3nnc4ccccc4c3=O)C(=O)O)coc2c1 (racemic) [Example 89, (+/−)-4-Oxo-2-[2-(4-oxo-1,2,3-benzotriazin-3(4H)-yl)ethyl]-4-[6-(pentyloxy)-1-benzofur-3-yl]butanoic acid]
10 | 0.3 | 83 | 3400 | 2100 | O=C(CC(CCn1nnc2ccccc2c1=O)C(=O)O)c1cc2ccc(OCCc3ccccc3)cc2s1 (racemic) [Example 114, (+/−)-4-Oxo-2-[2-(4-oxo-1,2,3-benzotriazin-3(4H)-yl)ethyl]-4-[6-(2-phenylethoxy)-1-benzothiophen-2-yl]butanoic acid]
